Tests used:
yellow nutsedge = assay: Test C pre-/postemergence herbicide test; assay type: in vivo, Cyperus esculentus
How it was run: (§1)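 Visual ratings on a 0–100 scale (100 = complete control) made versus untreated controls after 12 to 14 greenhouse days. Test chemicals, formulated in surfactant-containing non-phytotoxic solvent, applied preemergence to planted seeds or postemergence to 1- to 4-leaf plants (2 to 18 cm).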

rice = assay: Test B pre-/postemergence herbicide test; assay type: in vivo, Oryza sativa; details: 0 = no effect, 100 = complete control, preemergence
How it was run: (§2)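 Seeds were planted and treated preemergence with compounds formulated in a non-phytotoxic solvent mixture containing surfactant, while plants at the 1- to 4-leaf stage (2 to 18 cm) received postemergence sprays. Flooded paddy plants were grown to the 2-leaf stage. After 13 to 15 days in a greenhouse, injury was visually rated 0–100 against untreated controls.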

johnsongrass = assay: Test C pre-/postemergence herbicide test; assay type: in vivo, Sorghum halepense
How it was run: as §1

large crabgrass [1] = assay: Test B pre-/postemergence herbicide test; assay type: in vivo, Digitaria sanguinalis; details: for Crabgrass, Large plant response rating: postemergence
How it was run: as §2

cocklebur = assay: Test C pre-/postemergence herbicide test; assay type: in vivo, Xanthium strumarium
How it was run: as §1

Surinam grass = assay: Test B pre-/postemergence herbicide test; assay type: in vivo, Urochloa decumbens; details: for Surinam Grass plant response rating: postemergence
How it was run: as §2

morningglory = assay: Test C pre-/postemergence herbicide test; assay type: in vivo, Ipomoea coccinea; design: key to Plant response rating, Morningglory: 0 = no effect, 100 = complete control
How it was run: as §1

barnyardgrass = assay: Test C flooded paddy test; assay type: in vivo, Echinochloa crus-galli
How it was run: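 Greenhouse test with a 12–14 day hold after application and visual comparison with controls. Emerged plants were 1- to 4-leaf stage (2–18 cm) when sprayed postemergence, and the paddy barnyardgrass was at 2 leaves under flooded conditions. 100 = complete control.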

large crabgrass [2] = assay: Test C pre-/postemergence herbicide test; assay type: in vivo, Digitaria sanguinalis
How it was run: as §1

[3] = Postemergence, 250 g ai/ha, scale 0 to 100, 0 no effect, 100 complete control
[4] = postemergence, 125 g ai/ha, scale 0 to 100
[5] = postemergence, 62 g ai/ha, scale 0 to 100
[6] = 125 g ai/ha, 0 = no effect, 100 = complete control, preemergence
[7] = 125 g ai/ha, visual rating, scale 0 (no effect) to 100 (complete control)
[8] = 500 g ai/ha, visual rating, 0 = no effect, 100 = complete control, preemergence
[9] = 500 g ai/ha, scale 0 to 100, 0 is no effect, 100 is complete control

CCOC(=O)c1cccc(NC(=O)c2cc(C3(C)CC3)nn2CC)c1 [Compound 295]
Plant response rating, Nutsedge, Yellow (yellow nutsedge; [3]): 5 | Plant response rating, Nutsedge, Yellow (yellow nutsedge; [4]): 5 | Plant response rating, Nutsedge, Yellow (yellow nutsedge; [5]): 5 | Rice plant response rating (0 to 100 scale) (rice; 125 g ai/ha): 10 | Plant response rating, Rice (rice; 500 g ai/ha, visual rating): 20 | Plant response rating, Johnsongrass (johnsongrass; [3]): 5 | Plant response rating, Johnsongrass (johnsongrass; [4]): 5 | Plant response rating, Johnsongrass (johnsongrass; [5]): 5 | Crabgrass, Large plant response rating (0 to 100 scale) (large crabgrass [1]; [6]): 10 | Crabgrass, Large plant response rating (large crabgrass [1]; [7]): 30 | Plant response rating, Crabgrass, Large (large crabgrass [1]; [8]): 80 | Crabgrass, Large plant response rating (large crabgrass [1]; [9]): 60 | Plant response rating, Cocklebur (cocklebur; [3]): 10 | Plant response rating, Cocklebur (cocklebur; [4]): 5 | Plant response rating, Cocklebur (cocklebur; postemergence, 31 g ai/ha, scale 0 to 100): 5 | Plant response rating, Cocklebur (cocklebur; [5]): 5 | Surinam Grass plant response rating (0 to 100 scale) (Surinam grass; [6]): 0 | Surinam Grass plant response rating (Surinam grass; [7]): 50 | Plant response rating, Surinam Grass (Surinam grass; [8]): 20 | Surinam Grass plant response rating (Surinam grass; [9]): 60 | Plant response rating, Morningglory (morningglory; [3]): 30 | Plant response rating, Morningglory (morningglory; [4]): 10 | Plant response rating, Morningglory (morningglory; [5]): 10 | Barnyardgrass plant response rating (barnyardgrass; 62 g ai/ha, scale 0 to 100 (0 no effect, 100 complete control)): 0 | Barnyardgrass plant response rating (barnyardgrass; 125 g ai/ha, scale 0 to 100 (0 no effect, 100 complete control)): 15 | Barnyardgrass plant response rating (barnyardgrass; 250 g ai/ha, scale of 0 to 100, 0 is no effect, 100 is complete control): 25 | Plant response rating, Barnyardgrass (barnyardgrass; 500 g ai/ha, visual rating after 12 to 14 days, scale 0 to 100 (0 no effect, 100 complete control)): 40 | Plant response rating, Crabgrass, Large (large crabgrass [2]; [3]): 35 | Plant response rating, Crabgrass, Large (large crabgrass [2]; [4]): 30

— patent publication US20060069132A1, “Azolecarboxamide herbicides” (priority 2004, published 2006)
